Test results from ChEMBL document CHEMBL5550141, “Photo-regulated PROTACs: A novel tool for temporal control of targeted protein degradation” (Bioorg Med Chem Lett, 2024).
Activity calls are given as the source filed them. No cut-off for these calls is given here.

Experiments:
[1] = molecular target: T1, Protein cereblon/Bromodomain-containing protein 4 (Homo sapiens) (UniProt O60885+Q96SW2); test: PROTAC activity at CRBN/BRD4 in human MCF7 cells assessed as induction of BRD4 degradation at 1 uM measured after 24 hrs by Western blot analysis relative to control; type: cell-based
[2] = Stability of the compound assessed as UV-light induced degradation measured after 30 mins by HPLC analysis; type: physicochemical; conditions: 0.5 h
[3] = molecular target: T1, Protein cereblon/Bromodomain-containing protein 4 (Homo sapiens); test: PROTAC activity at CRBN/BRD4 in human MCF7 cells assessed as induction of BRD4 degradation at 1 uM measured after 18 hrs in presence of MLN4924 by Western blot analysis; type: cell-based
[4] = molecular target: T1, Protein cereblon/Bromodomain-containing protein 4 (Homo sapiens); test: PROTAC activity at CRBN/BRD4 in human MCF7 cells assessed as induction of BRD4 degradation at 1 uM measured after 18 hrs in presence of […] by Western blot analysis; type: cell-based
[5] = molecular target: T1, Protein cereblon/Bromodomain-containing protein 4 (Homo sapiens); test: PROTAC activity at CRBN/BRD4 in human MCF7 cells assessed as induction of BRD4 degradation at 1 uM measured after 18 hrs in presence of MG132 by Western blot analysis; type: cell-based
[6] = molecular target: T1, Protein cereblon/Bromodomain-containing protein 4 (Homo sapiens); test: PROTAC activity at CRBN/BRD4 in human MCF7 cells assessed as induction of BRD4 degradation at 1 uM measured after 24 hrs by Western blot analysis; type: cell-based
[7] = molecular target: T1, Protein cereblon/Bromodomain-containing protein 4 (Homo sapiens); test: PROTAC activity at CRBN/BRD4 in human MCF7 cells assessed as induction of BRD4 degradation at 1 uM measured after 6 to 24 hrs by Western blot analysis relative to control; type: cell-based; conditions: time 6-24 hrs
[8] = molecular target: T1, Protein cereblon/Bromodomain-containing protein 4 (Homo sapiens); test: PROTAC activity at CRBN/BRD4 in human MCF7 cells assessed as induction of BRD4 degradation measured after 6 to 24 hrs by Western blot analysis; type: cell-based; conditions: dose <= 1.0 µM, time 6-24 hrs

T1 sequence (Q96SW2 whole entry, looked up, other chains not shown): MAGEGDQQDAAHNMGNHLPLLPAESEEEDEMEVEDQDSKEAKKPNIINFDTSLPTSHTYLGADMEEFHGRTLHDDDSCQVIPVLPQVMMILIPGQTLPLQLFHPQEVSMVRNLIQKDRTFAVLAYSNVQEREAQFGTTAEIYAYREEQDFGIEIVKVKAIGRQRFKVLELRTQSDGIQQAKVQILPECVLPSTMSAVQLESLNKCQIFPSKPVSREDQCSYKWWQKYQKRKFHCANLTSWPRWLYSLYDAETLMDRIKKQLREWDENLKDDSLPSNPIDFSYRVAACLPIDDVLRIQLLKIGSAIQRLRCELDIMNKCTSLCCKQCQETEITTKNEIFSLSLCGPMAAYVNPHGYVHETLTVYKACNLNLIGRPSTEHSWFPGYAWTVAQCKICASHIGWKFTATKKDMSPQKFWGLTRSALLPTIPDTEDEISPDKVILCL

Row | Activity [1] [%] | Stability [2] | Activity [3] | Activity [4] | Activity [5] | Activity [6] | Activity [7] [%] | Activity [8] | Compound
1 | > 80 | Unstable | inactive | inactive | inactive | Active | > 80 | Dose-Dependent Effect | Cc1sc2c(c1C)C(c1ccc(Cl)cc1)=N[C@@H](CC(=O)NCCCNC(=O)OCc1cc(OCCCNc3cccc4c3C(=O)N(C3CCC(=O)NC3=O)C4=O)ccc1[N+](=O)[O-])c1nnc(C)n1-2 (some centres undefined)
2 | > 80 | – | inactive | inactive | inactive | Active | – | Dose-Dependent Effect | Cc1sc2c(c1C)C(c1ccc(Cl)cc1)=N[C@@H](CC(=O)NCCNC(=O)OCc1cc(OCCCNc3cccc4c3C(=O)N(C3CCC(=O)NC3=O)C4=O)ccc1[N+](=O)[O-])c1nnc(C)n1-2 (some centres undefined)
3 | > 80 | – | inactive | inactive | inactive | Active | – | – | Cc1sc2c(c1C)C(c1ccc(Cl)cc1)=N[C@@H](CC(=O)NCCCNC(=O)OCc1cc(OCCCNC(=O)CNc3cccc4c3C(=O)N(C3CCC(=O)NC3=O)C4=O)ccc1[N+](=O)[O-])c1nnc(C)n1-2 (some centres undefined)
